From patent US20250002473A1, “QUINOXALINE DERIVED SULFONAMIDES WITH EGFR DEGRADATION ACTIVITIES AND THEIR USES THEREOF” (Accutar Biotechnology Inc., priority 2023, published 2025)

Key:
Format in all cases: cell-based
BaF3_DTC = test: Cell growth inhibition assay (CellTiter-Glo), BaF3_DTC; conditions: 72 h; Table 6; BaF3_DTC cells, three days, CellTiter-Glo; read-out: BaF3_DTC GI50
Method: (§1) Cells were seeded in a 96-well plate (Corning 3610) with 90 μL of culture medium per well, and plates were incubated at 37° C. overnight. A 1,000× DMSO stock solution of the desired compound was prepared the following day. A compound dilution plate was prepared by diluting the stock solution 1:100 in the corresponding cell culture medium, 10 μL of the diluted compound solution was added to each 96-well plate well containing the seeded cells. […] The content of the wells was mixed by shaking continuously for 10 min, and luminescence was measured using Envision (PerkinElmer). The data were analyzed with GraphPad Prism 9 (see FIG. 50).
(§2) Table 6, Table 7, and Table 8 list the cell growth inhibition results, where Gls0 represents the compound concentration to cause 50% cell growth inhibition in comparison with DMSO.

BaF3_ASV = test: Cell growth inhibition assay (CellTiter-Glo), BaF3_ASV; conditions: 72 h; Table 6; BaF3_ASV cells, three days, CellTiter-Glo; read-out: BaF3_ASV GI50
Method: as §1, §2

[1] = test system: BaF3_DTC (EGFR_Exon19del/T790M/C797S); test: EGFR degradation assay (western blot), BaF3_DTC cells; conditions: BaF3_DTC cells (EGFR_Exon19del/T790M/C797S), compounds 24 h, western blot; read-out: BaF3_DTC DC50
Method: (§3) A431 (EGFR_WT), NCl-H2073 (EGFR_WT), NCl-H292 (EGFR_WT), BaF3_YVAM (Her2_A775insYVAM), BaF3_SVD (EGFR_D770insSVD), BaF3_ASV (EGFR_A776inASV), or BaF3_DTC (EGFR_Exon19del/T790M/C797S) cells were seeded in a 24-well plate at a density of 4×10^5 cells per well for EGFR WT cells and 8× cells per well for EGFR or Her2 mutant cells, and the plates were incubated overnight. The cells were treated with the desired compounds for 24 h. The culture medium was removed, and 100 μL of RIPA buffer (Beyotime, P0013B) containing 1% Protease Inhibitor Cocktail (Bimake, B14001), 1% Phosphatase Inhibitor Cocktail 2 (Sigma, P5726), and 1% Phosphatase Inhibitor Cocktail 3 (Sigma, P0044) were added to lyse the cells. Then, the cell lysates were transferred to 1.5 mL microcentrifuge tubes and centrifuged at 12,000 rpm and 4° C. for 30 min. The supernatants were transferred into new tubes, and the protein concentration was determined using the BCA protein quantification method. All samples were diluted to the same concentration using RIPA buffer, loading buffer was added, samples were denatured, and 15 μg of protein per lane was loaded onto a SurePAGE 4-20% Bis-Tris gel. Samples were separated via electrophoresis in MOPS running buffer at 180 V for 100 min. Then, proteins were transferred onto PVDF membranes using the MiniBlot™ Electrophoretic Transfer Cell Device (Beyotime, E6050). The membrane was blocked using block buffer (LI-COR 927-60001) to prevent non-specific binding. The membrane was incubated with primary antibodies (1:500 dilution, EGFR-CST4405, 1:2000 dilution, Tubulin-ABclonal #AC021) at 4° C. overnight. The membrane was washed three times with 1× TBST buffer for 15 min each. The membrane was incubated with secondary antibodies IRDye 680RD Goat anti-Rabbit IgG Secondary Antibody (1:2000 dilution, LI-COR 926-68071) and IRDye 800CW Goat anti-Mouse IgG Secondary Antibody (1:2000 dilution, LI-COR 926-32210). Finally, the membrane was washed again with 1× TBST buffer 3 times. Fluorescence was detected using the Odyssey CLx Imaging System, and the data were analyzed with Empiria Studio Software and GraphPad Prism 9. Table 4 and Table 5 list the degradation results, where the degradation potency is represented by DC50, the concentration of compounds to cause the degradation of 50% of the corresponding proteins. FIGS. 45-49 show western blots illustrating the EGFR degradative activity of exemplary Compound of the present disclosure and a comparator Compound A in different cell lines 24 h after administration. The Compound referred herein as Compound A is disclosed in WO 2022/171123 A1 (see, compound 133, page 46; published Aug. 18, 2022). WO 2022/171123 A1 discloses phosphine oxide derived molecules with EGFR degradation activity.

A431 = test: Cell growth inhibition assay (CellTiter-Glo), A431; conditions: Homo sapiens, A-431, 72 h, Table 6; A431 cells, three days, CellTiter-Glo; read-out: A431 GI50
Method: as §1, §2

[2] = biological target: T1, BaF3_ASV (EGFR_A776inASV) (Homo sapiens, UniProt P00533, DUP767-769); test: EGFR degradation assay (western blot), BaF3_ASV cells; conditions: BaF3_ASV cells, compounds 24 h, western blot; read-out: BaF3_ASV DC50
T1 construct: expressed in transfected cells; host or cells: Ba/F3 (engineered)
Method: as §3

T1 sequence (P00533 with tags, fused parts or gaps DUP767-769): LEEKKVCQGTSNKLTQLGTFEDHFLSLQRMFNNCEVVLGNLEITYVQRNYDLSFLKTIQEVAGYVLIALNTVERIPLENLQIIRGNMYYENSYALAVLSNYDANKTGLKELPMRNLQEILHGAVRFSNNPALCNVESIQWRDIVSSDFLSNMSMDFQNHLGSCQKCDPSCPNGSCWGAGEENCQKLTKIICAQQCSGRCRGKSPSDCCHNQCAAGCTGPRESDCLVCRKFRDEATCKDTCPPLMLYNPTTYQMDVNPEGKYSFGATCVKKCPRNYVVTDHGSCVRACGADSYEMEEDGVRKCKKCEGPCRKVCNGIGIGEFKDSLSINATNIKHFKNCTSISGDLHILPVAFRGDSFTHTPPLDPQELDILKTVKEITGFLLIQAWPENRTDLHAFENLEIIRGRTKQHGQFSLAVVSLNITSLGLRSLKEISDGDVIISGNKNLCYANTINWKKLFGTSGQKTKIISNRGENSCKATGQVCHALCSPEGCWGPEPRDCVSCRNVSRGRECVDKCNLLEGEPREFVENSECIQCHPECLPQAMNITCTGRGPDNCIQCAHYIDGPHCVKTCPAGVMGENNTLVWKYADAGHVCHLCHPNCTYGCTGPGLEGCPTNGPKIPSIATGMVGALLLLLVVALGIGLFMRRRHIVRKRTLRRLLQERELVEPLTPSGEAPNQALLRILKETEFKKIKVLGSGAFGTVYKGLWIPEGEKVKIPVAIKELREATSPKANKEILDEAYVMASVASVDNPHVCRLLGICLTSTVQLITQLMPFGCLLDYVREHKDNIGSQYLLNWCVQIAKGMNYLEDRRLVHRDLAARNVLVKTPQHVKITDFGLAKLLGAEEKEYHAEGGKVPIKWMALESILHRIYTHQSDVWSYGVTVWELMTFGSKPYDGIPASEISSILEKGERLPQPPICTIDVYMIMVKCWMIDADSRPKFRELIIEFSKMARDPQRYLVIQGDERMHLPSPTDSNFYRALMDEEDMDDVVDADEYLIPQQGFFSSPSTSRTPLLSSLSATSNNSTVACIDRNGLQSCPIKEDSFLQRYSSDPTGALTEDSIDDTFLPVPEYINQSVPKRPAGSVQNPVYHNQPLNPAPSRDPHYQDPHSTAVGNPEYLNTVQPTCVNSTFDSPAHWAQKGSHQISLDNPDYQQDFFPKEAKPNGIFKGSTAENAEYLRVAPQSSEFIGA

Row | Compound | GI50 (BaF3_DTC) | GI50 (BaF3_ASV) | DC50 [1] | GI50 (A431) | DC50 [2]
1 | CCc1cc(Nc2ncc(Br)c(Nc3ccc4nccnc4c3NS(C)(=O)=O)n2)c(OC)cc1N1CCC(N2CCN(CCNc3cccc4c3CN(C3CCC(=O)NC3=O)C4=O)CC2)CC1 (centres unmarked) [Compound 91, N-(6-((5-bromo-2-((4-(4-(4-(2-((2-(2,6-dioxopiperidin-3-yl)-1-oxoisoindolin-4-yl)amino)ethyl)piperazin-1-yl)piperidin-1-yl)-5-ethyl-2-methoxyphenyl)amino)pyrimidin-4-yl)amino)quinoxalin-5-yl)methanesulfonamide] | 9.26 nM | 48.6 nM | 8.04 nM | 448 nM | 53.7 nM
2 | CCc1cc(Nc2ncc(Br)c(Nc3ccc4nccnc4c3NS(C)(=O)=O)n2)c(OC)cc1N1CCC(N2CCN(C3CCC4(CC3)CN(c3ccc5c(c3)CN(C3CCC(=O)NC3=O)C5=O)C4)CC2)CC1 (centres unmarked) [Compound 50, N-(6-((5-bromo-2-((4-(4-(4-(2-(2-(2,6-dioxopiperidin-3-yl)-1-oxoisoindolin-5-yl)-2-azaspiro[3.5]nonan-7-yl)piperazin-1-yl)piperidin-1-yl)-5-ethyl-2-methoxyphenyl)amino)pyrimidin-4-yl)amino)quinoxalin-5-yl)methanesulfonamide] | 13 nM | 106 nM | 38.5 nM | > 1000 nM | 95.2 nM
3 | CCc1cc(Nc2ncc(Br)c(Nc3ccc4nccnc4c3NS(C)(=O)=O)n2)c(OC)cc1N1CCC(CN2CCN(c3ccc4c(c3)CN([C@H]3CCC(=O)NC3=O)C4=O)CC2)CC1 [Compound 43, (S)-N-(6-((5-bromo-2-((4-(4-((4-(2-(2,6-dioxopiperidin-3-yl)-1-oxoisoindolin-5-yl)piperazin-1-yl)methyl)piperidin-1-yl)-5-ethyl-2-methoxyphenyl)amino)pyrimidin-4-yl)amino)quinoxalin-5-yl)methanesulfonamide] | 15 nM | 119 nM | 0.323 nM | > 1000 nM | –
4 | CCc1cc(Nc2ncc(Br)c(Nc3ccc4nccnc4c3NS(C)(=O)=O)n2)c(OC)cc1N1CCC(N2CCC(CN3CCN(c4ccc5c(c4)CN([C@H]4CCC(=O)NC4=O)C5=O)CC3)CC2)CC1 [Compound 35, (S)-N-(6-((5-bromo-2-((4-(4-((4-(2-(2,6-dioxopiperidin-3-yl)-1-oxoisoindolin-5-yl)piperazin-1-yl)methyl) [1,4′-bipiperidin]-1′-yl)-5-ethyl-2-methoxyphenyl)amino)pyrimidin-4-yl)amino)quinoxalin-5-yl)methanesulfonamide] | 13.7 nM | 126 nM | 66 nM | > 1000 nM | 86.5 nM
5 | CCc1cc(Nc2ncc(Br)c(Nc3ccc4nccnc4c3NS(C)(=O)=O)n2)c(OC)cc1N1CCC(CN2CCC3(CC2)CN(c2ccc4c(c2)CN(C2CCC(=O)NC2=O)C4=O)C3)CC1 (centres unmarked) [Compound 56, N-(6-((5-bromo-2-((4-(4-((2-(2-(2,6-dioxopiperidin-3-yl)-1~oxoisoindolin-5-yl)-2,7-diazaspiro[3.5]nonan-7-yl)methyl)piperidin-1-yl)-5-ethyl-2-methoxyphenyl)amino)pyrimidin-4-yl)amino)quinoxalin-5-yl)methanesulfonamide] | 6.08 nM | 37.2 nM | 9.32 nM | > 1000 nM | 18 nM
6 | CCc1cc(Nc2ncc(Br)c(Nc3ccc4nccnc4c3NS(C)(=O)=O)n2)c(OC)cc1N1CCC(CN2CC3(CCN(c4ccc5c(c4)CN(C4CCC(=O)NC4=O)C5=O)CC3)C2)CC1 (centres unmarked) [Compound 58, N-(6-((5-bromo-2-((4-(4-((7-(2-(2,6-dioxopiperidin-3-yl)-1-oxoisoindolin-5-yl)-2,7-diazaspiro[3.5]nonan-2-yl)methyl)piperidin-1-yl)-5-ethyl-2-methoxyphenyl)amino)pyrimidin-4-yl)amino)quinoxalin-5-yl)methanesulfonamide] | 11.2 nM | 49 nM | 10.4 nM | > 1000 nM | 23 nM
7 | CCc1cc(Nc2ncc(Br)c(Nc3ccc4nccnc4c3NS(C)(=O)=O)n2)c(OC)cc1N1CCC(N2CCC3(CCN(c4ccc5c(c4)CN(C4CCC(=O)NC4=O)C5=O)CC3)CC2)CC1 (centres unmarked) [Compound 53, N-(6-((5-bromo-2-((4-(4-(9-(2-(2,6-dioxopiperidin-3-yl)-1-oxoisoindolin-5-yl)-3,9-diazaspiro[5.5]undecan-3-yl)piperidin-1-yl)-5-ethyl-2-methoxyphenyl)amino)pyrimidin-4-yl)amino)quinoxalin-5-yl)methanesulfonamide] | 22.7 nM | 330 nM | 5.99 nM | > 1000 nM | > 1000 nM
8 | CCc1cc(Nc2ncc(Br)c(Nc3ccc4nccnc4c3NS(C)(=O)=O)n2)c(OC)cc1N1CCC(N2CCN(CC3CC4(CCN(c5ccc6c(c5)CN(C5CCC(=O)NC5=O)C6=O)CC4)C3)CC2)CC1 (centres unmarked) [Compound 47, N-(6-((5-bromo-2-((4-(4-(4-((7-(2-(2,6-dioxopiperidin-3-yl)-1-oxoisoindolin-5-yl)-7-azaspiro[3.5]nonan-2-yl)methyl)piperazin-1-yl)piperidin-1-yl)-5-ethyl-2-methoxyphenyl)amino)pyrimidin-4-yl)amino)quinoxalin-5-yl)methanesulfonamide] | 12.1 nM | 47.5 nM | 14.5 nM | > 1000 nM | –
9 | CCc1cc(Nc2ncc(Br)c(Nc3ccc4nccnc4c3NS(C)(=O)=O)n2)c(OC)cc1N1CCN(CC2(CN3CCN(c4ccc5c(c4)CN([C@H]4CCC(=O)NC4=O)C5=O)CC3)CC2)CC1 [Compound 44, (S)-N-(6-((5-bromo-2-((4-(4-((1-((4-(2-(2,6-dioxopiperidin-3-yl)-1-oxoisoindolin-5-yl)piperazin-1-yl)methyl)cyclopropyl)methyl)piperazin-1-yl)-5-ethyl-2-methoxyphenyl)amino)pyrimidin-4-yl)amino)quinoxalin-5-yl)methanesulfonamide] | 18.4 nM | 527 nM | 4.11 nM | > 1000 nM | > 1000 nM
10 | CCc1cc(Nc2ncc(Br)c(Nc3ccc4nccnc4c3NS(C)(=O)=O)n2)c(OC)cc1N1CCC(N2CCN(CCN3CCN(c4ccc5c(c4)CN([C@H]4CCC(=O)NC4=O)C5=O)CC3)CC2)CC1 [Compound 39, (S)-N-(6-((5-bromo-2-((4-(4-(4-(2-(4-(2-(2,6-dioxopiperidin-3-yl)-1-oxoisoindolin-5-yl)piperazin-1-yl)ethyl)piperazin-1-yl)piperidin-1-yl)-5-ethyl-2-methoxyphenyl)amino)pyrimidin-4-yl)amino)quinoxalin-5-yl)methanesulfonamide] | 11.1 nM | 73.4 nM | 3.13 nM | 441 nM | –
